According to patent USRE47689E1, “Compounds for treating spinal muscular atrophy” (PTC Therapeutics, Inc., priority 2011, dated 2019):

Columns and labels:
[1] = tested on: Smn protein; test: Smn protein assay in cultured cells (SMN HTRF); format: cell-based, human; settings: 48 hours; for EC1.5x (concentration giving 1.5-fold Smn protein increase): SMA Type 1 patient fibroblast cells (GM03813), 7-point concentration curve, SMN HTRF, concentration producing 1.5 times Smn protein vs DMSO vehicle control, read-out: EC1.5x for Smn protein expression; for maximum fold (Fold) increase of Smn protein: SMA patient fibroblast cells, 7-point concentration data, fold increase relative to vehicle control (SMN HTRF)
Summary of the method: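 Smn in SMA fibroblast lysates, measured by anti-SMN HTRF after 48 h compound exposure; EC1.5x from fold change over vehicle.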

[2] = tested on: SMN2 minigene (full length SMN2 minigene mRNA containing SMN2 exon 7); test: SMN2 minigene mRNA splicing RT-qPCR assay in cultured cells; format: cell-based, human; settings: Homo sapiens, HEK293-H; HEK293H cells stably transfected with SMN2-A minigene; 24 hours; 7-point concentration curve; 1.5-fold relative to vehicle-treated cells; read-out: EC1.5x for production of full length SMN2 mRNA
Summary of the method: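 Full-length SMN2 minigene mRNA (exon 7 included), minigene-specific and not endogenous SMN, quantified by RT-qPCR multiplexed with GAPDH in stably transfected HEK293H cells after 24 h compound exposure at 37° C. Abundance from efficiency-corrected Ct, normalized to GAPDH and vehicle; EC1.5x reported as star bins.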

In the case of Cc1cc(F)c2nc(-c3cc4ccc(N5CCN(C)[C@@H](C)C5)cc4oc3=O)cn2c1 [Compound 471, 7-[(3S)-3,4-dimethylpiperazin-1-yl]-3-(8-fluoro-6-methylimidazo[1,2-a]pyridin-2-yl)-2H-chromen-2-one], the melting point is reported as 270 to 277 °C, the EC1.5x (concentration giving 1.5-fold Smn protein increase) [1] is reported as 300 to 1000 nM and the “maximum fold (Fold) increase of Smn protein” value (shortened to “maximum fold (Fold) increase”) [1] is reported as “**** (fold increase between >1.5 and ≤1.65)”. For the same compound, the EC (1.5-fold) [2] was 0.1 to 0.3 µM.
In the case of C[C@@H]1CN(c2ccc3cc(-c4cn5cc(Cl)sc5n4)c(=O)oc3c2)C[C@H](C)N1 [Compound 473, 3-(2-chloroimidazo[2,1-b][1,3]thiazol-6-yl)-7-[(3R,5S)-3,5-dimethylpiperazin-1-yl]-2H-chromen-2-one], the melting point is reported as 270 to 273 °C, the “maximum fold (Fold) increase” value [1] is reported as “** (fold increase between >1.2 and ≤1.35)” and the EC (1.5-fold) [2] is reported as 0.1 to 0.3 µM.
For Cc1ccn2cc(-c3cc4ccc(NC5CCN(C)CC5)cc4oc3=O)nc2c1 [Compound 474, 3-(7-methylimidazo[1,2-a]pyridin-2-yl)-7-[(1-methylpiperidin-4-yl)amino]-2H-chromen-2-one], the melting point was 224 to 230 °C, the “maximum fold (Fold) increase” value [1] was “* (maximum fold increase of ≤1.2)” and the EC (1.5-fold) [2] was 1 to 3 µM.
For Cc1ccn2cc(-c3cc4ccc(NCCCN(C)C)cc4oc3=O)nc2c1 [Compound 475, 7-{[3-(dimethylamino)propyl]amino}-3-(7-methylimidazo[1,2-a]pyridin-2-yl)-2H-chromen-2-one], the melting point was 165 to 170 °C, the “maximum fold (Fold) increase” value [1] was “* (maximum fold increase of ≤1.2)” and the EC (1.5-fold) [2] was 3 to 30 µM.
With Cc1cn2cc(-c3cc4ccc(N5C[C@@H](C)N[C@@H](C)C5)cc4oc3=O)nc2cn1 [Compound 476, 7-[(3R,5S)-3,5-dimethylpiperazin-1-yl]-3-(6-methylimidazo[1,2-a]pyrazin-2-yl)-2H-chromen-2-one] the melting point was 249 to 250 °C, the EC1.5x (concentration giving 1.5-fold Smn protein increase) [1] was less than 300 nM and the “maximum fold (Fold) increase” value [1] was “***** (fold increase >1.65)”. It also gave an EC (1.5-fold) [2] of less than 0.1 µM.
For CN1CCN(c2ccc3cc(-c4cn5cc(Cl)sc5n4)c(=O)oc3c2)CC1 [Compound 478, 3-(2-chloroimidazo[2,1-b][1,3]thiazol-6-yl)-7-(4-methylpiperazin-1-yl)-2H-chromen-2-one], the melting point was 268 to 270 °C, the “maximum fold (Fold) increase” value [1] was “* (maximum fold increase of ≤1.2)” and the EC (1.5-fold) [2] was 0.3 to 1 µM.
With CN1CCCN(c2ccc3cc(-c4cn5cc(Cl)sc5n4)c(=O)oc3c2)CC1 [Compound 479, 3-(2-chloroimidazo[2,1-b][1,3]thiazol-6-yl)-7-(4-methyl-1,4-diazepan-1-yl)-2H-chromen-2-one] the melting point was 229 to 232 °C, the “maximum fold (Fold) increase” value [1] was “* (maximum fold increase of ≤1.2)” and the EC (1.5-fold) [2] was 0.3 to 1 µM.
For C[C@@H]1CN(c2ccc3cc(-c4cn5cc(F)cnc5n4)c(=O)oc3c2)CCN1 [Compound 481, 3-(6-fluoroimidazo[1,2-a]pyrimidin-2-yl)-7-[(3R)-3-methylpiperazin-1-yl]-2H-chromen-2-one], the melting point was 232 to 236 °C, the “maximum fold (Fold) increase” value [1] was “* (maximum fold increase of ≤1.2)” and the EC (1.5-fold) [2] was 1 to 3 µM.
With Cc1nn2cc(-c3cc4ccc(N5CCN[C@@H](C)C5)cc4oc3=O)nc2s1 [Compound 482, 3-(2-methylimidazo[2,1-b][1,3,4]thiadiazol-6-yl)-7-[(3S)-3-methylpiperazin-1-yl]-2H-chromen-2-one] the melting point was 205 to 209 °C, the EC1.5x (concentration giving 1.5-fold Smn protein increase) [1] was less than 300 nM and the “maximum fold (Fold) increase” value [1] was “**** (fold increase between >1.5 and ≤1.65)”. It also gave an EC (1.5-fold) [2] of less than 0.1 µM.
With Cc1nn2cc(-c3cc4ccc(N5CCN[C@H](C)C5)cc4oc3=O)nc2s1 [Compound 483, 3-(2-methylimidazo[2,1-b][1,3,4]thiadiazol-6-yl)-7-[(3R)-3-methylpiperazin-1-yl]-2H-chromen-2-one] the melting point was 206 to 210 °C, the EC1.5x (concentration giving 1.5-fold Smn protein increase) [1] was 1000 to 3000 nM and the “maximum fold (Fold) increase” value [1] was “*** (fold increase between >1.35 and ≤1.5)”. It also gave an EC (1.5-fold) [2] of 0.1 to 0.3 µM.
For O=c1oc2cc(N3CCNCC3)ccc2cc1-c1ccc(F)c(Cl)c1 [Compound 484, 3-(3-chloro-4-fluorophenyl)-7-(piperazin-1-yl)-2H-chromen-2-one], the melting point was 186 to 188 °C, the “maximum fold (Fold) increase” value [1] was “* (maximum fold increase of ≤1.2)” and the EC (1.5-fold) [2] was 0.3 to 1 µM.
With C[C@H]1CN(c2ccc3cc(-c4ccc(F)c(Cl)c4)c(=O)oc3c2)CCN1 [Compound 485, 3-(3-chloro-4-fluorophenyl)-7-[(3S)-3-methylpiperazin-1-yl]-2H-chromen-2-one] the melting point was 143 to 145 °C, the “maximum fold (Fold) increase” value [1] was “* (maximum fold increase of ≤1.2)” and the EC (1.5-fold) [2] was 1 to 3 µM.
For O=c1oc2cc(N3CCNCC3)ccc2cc1-c1ccc2c(c1)OCO2 [Compound 486, 3-(1,3-benzodioxol-5-yl)-7-(piperazin-1-yl)-2H-chromen-2-one], the melting point was 218 to 220 °C, the “maximum fold (Fold) increase” value [1] was “* (maximum fold increase of ≤1.2)” and the EC (1.5-fold) [2] was 3 to 30 µM.
With C[C@@H]1CN(c2ccc3cc(-c4ccc5c(c4)OCO5)c(=O)oc3c2)C[C@H](C)N1 [Compound 487, 3-(1,3-benzodioxol-5-yl)-7-[(3R,5S)-3,5-dimethylpiperazin-1-yl]-2H-chromen-2-one] the melting point was 123 to 125 °C, the “maximum fold (Fold) increase” value [1] was “* (maximum fold increase of ≤1.2)” and the EC (1.5-fold) [2] was 3 to 30 µM.
In the case of C[C@@H]1CN(c2ccc3cc(-c4ccc5c(c4)OCO5)c(=O)oc3c2)CCN1 [Compound 488, 3-(1,3-benzodioxol-5-yl)-7-[(3R)-3-methylpiperazin-1-yl]-2H-chromen-2-one], the melting point is reported as 135 to 137 °C, the “maximum fold (Fold) increase” value [1] is reported as “* (maximum fold increase of ≤1.2)” and the EC (1.5-fold) [2] is reported as 3 to 30 µM.
In the case of C[C@H]1CN(c2ccc3cc(-c4ccc5c(c4)OCO5)c(=O)oc3c2)CCN1 [Compound 489, 3-(1,3-benzodioxol-5-yl)-7-[(3S)-3-methylpiperazin-1-yl]-2H-chromen-2-one], the melting point is reported as 134 to 136 °C, the “maximum fold (Fold) increase” value [1] is reported as “* (maximum fold increase of ≤1.2)” and the EC (1.5-fold) [2] is reported as 3 to 30 µM.
For C[C@H]1CN(c2ccc3cc(-c4cccc(C(F)(F)F)c4)c(=O)oc3c2)CCN1 [Compound 490, 7-[(3S)-3-methylpiperazin-1-yl]-3-[3-(trifluoromethyl)phenyl]-2H-chromen-2-one], the melting point was 141 to 143 °C, the “maximum fold (Fold) increase” value [1] was “* (maximum fold increase of ≤1.2)” and the EC (1.5-fold) [2] was 1 to 3 µM.
With C[C@@H]1CN(c2ccc3cc(-c4cn5cc(F)cnc5n4)c(=O)oc3c2)C[C@H](C)N1 [Compound 491, 7-[(3R,5S)-3,5-dimethylpiperazin-1-yl]-3-(6-fluoroimidazo[1,2-a]pyrimidin-2-yl)-2H-chromen-2-one] the melting point was 275 to 281 °C, the “maximum fold (Fold) increase” value [1] was “** (fold increase between >1.2 and ≤1.35)” and the EC (1.5-fold) [2] was 1 to 3 µM.
In the case of C[C@H]1CN(c2ccc3cc(-c4cn5cc(F)cnc5n4)c(=O)oc3c2)CCN1 [Compound 492, 3-(6-fluoroimidazo[1,2-a]pyrimidin-2-yl)-7-[(3S)-3-methylpiperazin-1-yl]-2H-chromen-2-one], the melting point is reported as 230 to 236 °C, the “maximum fold (Fold) increase” value [1] is reported as “* (maximum fold increase of ≤1.2)” and the EC (1.5-fold) [2] is reported as 1 to 3 µM.
With Cc1cn2cc(-c3cc4ccc(N5CCCN(C)CC5)cc4oc3=O)nc2cn1 [Compound 493, 7-(4-methyl-1,4-diazepan-1-yl)-3-(6-methylimidazo[1,2-a]pyrazin-2-yl)-2H-chromen-2-one] the melting point was 234 to 235 °C, the EC1.5x (concentration giving 1.5-fold Smn protein increase) [1] was less than 300 nM and the “maximum fold (Fold) increase” value [1] was “***** (fold increase >1.65)”. The EC (1.5-fold) [2] was less than 0.1 µM.
For O=c1oc2cc(N3CCNCC3)ccc2cc1-c1cn2cc(Cl)sc2n1 [Compound 494, 3-(2-chloroimidazo[2,1-b][1,3]thiazol-6-yl)-7-(piperazin-1-yl)-2H-chromen-2-one], the melting point was 240 to 242 °C, the “maximum fold (Fold) increase” value [1] was “* (maximum fold increase of ≤1.2)” and the EC (1.5-fold) [2] was 0.1 to 0.3 µM.
For Cc1ccn2cc(-c3cc4ccc(NC5CCNCC5)cc4oc3=O)nc2c1 [Compound 495, 3-(7-methylimidazo[1,2-a]pyridin-2-yl)-7-(piperidin-4-ylamino)-2H-chromen-2-one], the melting point was 232 to 239 °C, the “maximum fold (Fold) increase” value [1] was “* (maximum fold increase of ≤1.2)” and the EC (1.5-fold) [2] was 1 to 3 µM.
In the case of Cc1ccn2cc(-c3cc4ccc(N[C@@H]5CCNC5)cc4oc3=O)nc2c1 [Compound 496, 3-(7-methylimidazo[1,2-a]pyridin-2-yl)-7-[(3R)-pyrrolidin-3-ylamino]-2H-chromen-2-one], the melting point is reported as 244 to 254 °C, the “maximum fold (Fold) increase” value [1] is reported as “* (maximum fold increase of ≤1.2)” and the EC (1.5-fold) [2] is reported as 0.3 to 1 µM.
With C[C@@H]1CN(c2ccc3cc(-c4cn5cc(C6CC6)cc(F)c5n4)c(=O)oc3c2)C[C@H](C)N1 [Compound 497, 3-(6-cyclopropyl-8-fluoroimidazo[1,2-a]pyridin-2-yl)-7-[(3R,5S)-3,5-dimethylpiperazin-1-yl]-2H-chromen-2-one] the melting point was 257 to 267 °C, the “maximum fold (Fold) increase” value [1] was “* (maximum fold increase of ≤1.2)” and the EC (1.5-fold) [2] was 0.3 to 1 µM.
